The results in this text go back to patent US9868772B2 (INDIANA UNIVERSITY RESEARCH AND TECHNOLOGY CORPORATION, priority 2012, dated 2018).

Experiment in all cases: cAMP induction, firefly luciferase reporter assay in HEK293 cells co-transfected with receptor
Holding throughout (type): cell-based
For orientation: In a reporter assay the amount or activity of a reporter protein is the signal.

The target of assay [1] is T1, GIP receptor (Homo sapiens, UniProt P48546).
T1 construct: expressed in transfected cells; host or cells: HEK293
T1 sequence (P48546 22-466): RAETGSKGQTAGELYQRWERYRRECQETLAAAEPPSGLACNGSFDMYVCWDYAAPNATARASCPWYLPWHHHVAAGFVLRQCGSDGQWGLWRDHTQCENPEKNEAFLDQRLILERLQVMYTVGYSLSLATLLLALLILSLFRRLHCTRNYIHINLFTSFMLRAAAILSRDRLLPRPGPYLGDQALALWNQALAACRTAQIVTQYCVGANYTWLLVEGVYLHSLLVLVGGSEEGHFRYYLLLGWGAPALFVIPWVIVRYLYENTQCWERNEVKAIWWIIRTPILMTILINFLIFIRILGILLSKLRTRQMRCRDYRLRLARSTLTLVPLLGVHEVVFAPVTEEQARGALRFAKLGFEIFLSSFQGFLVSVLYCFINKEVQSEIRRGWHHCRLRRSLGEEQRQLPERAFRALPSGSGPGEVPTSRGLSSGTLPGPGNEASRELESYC
On the procedure: (§1) The ability of glucagon analogs to induce cAMP was measured in a firefly luciferase-based reporter assay. […] At the end of the incubation 100 microliters of LucLite luminescence substrate reagent (Perkin-Elmer, Wellesley, Mass.) were added to each well. […] Effective 50% concentrations were calculated by using Origin software (OriginLab, Northampton, Mass.

Assay [2] deals with T2, GLP-1 receptor (Homo sapiens, UniProt P43220).
T2 construct: expressed in transfected cells; host or cells: HEK293
T2 sequence (P43220 24-463): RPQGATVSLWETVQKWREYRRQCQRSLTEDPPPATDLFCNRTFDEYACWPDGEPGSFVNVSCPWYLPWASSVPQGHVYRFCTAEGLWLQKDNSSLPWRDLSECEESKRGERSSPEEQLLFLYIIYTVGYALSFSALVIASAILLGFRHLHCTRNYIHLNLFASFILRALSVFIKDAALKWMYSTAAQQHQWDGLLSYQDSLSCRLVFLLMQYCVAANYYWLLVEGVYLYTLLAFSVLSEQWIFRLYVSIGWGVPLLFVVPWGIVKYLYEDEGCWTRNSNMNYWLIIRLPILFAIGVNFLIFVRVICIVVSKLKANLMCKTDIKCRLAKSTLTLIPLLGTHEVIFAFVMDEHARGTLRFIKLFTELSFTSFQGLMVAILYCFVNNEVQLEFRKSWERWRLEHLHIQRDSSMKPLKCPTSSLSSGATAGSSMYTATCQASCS
On the procedure:
as §1

Assay [3] deals with T3, glucagon receptor (Homo sapiens, UniProt P47871).
T3 construct: expressed in transfected cells; host or cells: HEK293
T3 sequence (P47871 26-477): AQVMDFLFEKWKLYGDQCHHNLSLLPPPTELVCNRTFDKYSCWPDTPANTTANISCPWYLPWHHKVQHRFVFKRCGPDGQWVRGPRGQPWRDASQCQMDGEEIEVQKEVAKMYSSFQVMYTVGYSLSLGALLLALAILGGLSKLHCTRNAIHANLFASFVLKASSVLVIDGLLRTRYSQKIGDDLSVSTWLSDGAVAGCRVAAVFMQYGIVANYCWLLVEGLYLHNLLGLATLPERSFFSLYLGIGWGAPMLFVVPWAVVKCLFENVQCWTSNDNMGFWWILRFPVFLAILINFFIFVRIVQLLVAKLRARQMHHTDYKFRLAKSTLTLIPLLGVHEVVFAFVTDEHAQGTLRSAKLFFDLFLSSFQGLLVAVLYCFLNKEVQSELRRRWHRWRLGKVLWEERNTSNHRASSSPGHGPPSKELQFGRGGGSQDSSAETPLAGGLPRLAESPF
On the procedure:
as §1

[4] abbreviates: Table 1, analogs of SEQ ID NO: 37.
The mark [5] stands for this setting: Table 2, analogs of SEQ ID NO: 10.

Numbered stars: 1 amine (or outer) side, 2 acyl side, 3 side chain; on linkers, the order of the positions; unused ones are H or OH. Square brackets hold non-standard residues; d marks the D form. Side chains are listed from the residue outwards. Peptide text beside a SMILES is read from it. * marks the point of attachment. γGlu = O=C(O)[C@H](CCC(=O)[*:2])N[*:1]; Desaminotyrosyl = O=C(CCc1ccc(O)cc1)*; Palmitoyl = CCCCCCCCCCCCCCCC(=O)*; Aib = CC(C)(N)C(=O)O

The EC50 is the concentration that produces a half-maximal response. High values mean weaker potency, low ones greater potency. For the compound `CCCCCCCCCCCCCCCC(=O)N[C@@H](CCC(=O)NCCCC[C@H](NC(=O)[C@H](CC(=O)O)NC(=O)[C@H](CO)NC(=O)[C@@H](NC(=O)[C@H](Cc1ccccc1)NC(=O)[C@@H](NC(=O)CNC(=O)[C@H](CCC(N)=O)NC(=O)[C@H](C)NC(=O)[C@H](Cc1cccs1)NC(C)=O)[C@@H](C)O)[C@@H](C)O)C(=O)N[C@@H](CO)C(=O)N[C@@H](CCCCN)C(=O)N[C@@H](Cc1ccc(O)cc1)C(=O)N[C@@H](CC(C)C)C(=O)N[C@@H](CC(=O)O)C(=O)N[C@@H](CCC(=O)O)C(=O)N[C@@H](CCCNC(=N)N)C(=O)N[C@@H](C)C(=O)N[C@@H](C)C(=O)N[C@@H](CCC(N)=O)C(=O)N[C@@H](CC(=O)O)C(=O)N[C@@H](Cc1ccccc1)C(=O)N[C@H](C(=O)N[C@@H](CCC(N)=O)C(=O)N[C@@H](Cc1c[nH]c2ccccc12)C(=O)N[C@@H](CC(C)C)C(=O)N[C@@H](CC(C)C)C(=O)N[C@@H](CCC(=O)O)C(=O)NCC(=O)NCC(=O)N1CCC[C@H]1C(=O)N[C@@H](CO)C(=O)N[C@@H](CO)C(=O)NCC(=O)N[C@@H](C)C(=O)N1CCC[C@H]1C(=O)N1CCC[C@H]1C(=O)N1CCC[C@H]1C(=O)N[C@@H](CO)C(N)=O)C(C)C)C(=O)O` [compound 21], the 50% effective concentration (EC50) in assay [1] (setting [4]) stood at 40 pM; in assay [2] (setting [4]) it was 26 pM; in assay [3] (setting [4]) it was 6 pM.
On the same counts, the results for `CCCCCCCCCCCCCCCC(=O)N[C@@H](CCC(=O)NCCCC[C@H](NC(=O)[C@H](CC(=O)O)NC(=O)[C@H](CO)NC(=O)[C@@H](NC(=O)[C@H](Cc1ccccc1)NC(=O)[C@@H](NC(=O)CNC(=O)[C@H](CCC(N)=O)NC(=O)C(C)(C)NC(=O)[C@@H](N)Cc1c[nH]cn1)[C@@H](C)O)[C@@H](C)O)C(=O)N[C@@H](CO)C(=O)N[C@@H](CCCCN)C(=O)N[C@@H](Cc1ccc(O)cc1)C(=O)N[C@@H](CC(C)C)C(=O)N[C@@H](CC(=O)O)C(=O)N[C@@H](CCC(=O)O)C(=O)N[C@@H](CCCNC(=N)N)C(=O)N[C@@H](C)C(=O)N[C@@H](C)C(=O)N[C@@H](CCC(N)=O)C(=O)N[C@@H](CC(=O)O)C(=O)N[C@@H](Cc1ccccc1)C(=O)N[C@H](C(=O)N[C@@H](CCC(N)=O)C(=O)N[C@@H](Cc1c[nH]c2ccccc12)C(=O)N[C@@H](CC(C)C)C(=O)N[C@@H](CC(C)C)C(=O)N[C@@H](CCC(=O)O)C(=O)NCC(=O)NCC(=O)N1CCC[C@H]1C(=O)N[C@@H](CO)C(=O)N[C@@H](CO)C(=O)NCC(=O)N[C@@H](C)C(=O)N1CCC[C@H]1C(=O)N1CCC[C@H]1C(=O)N1CCC[C@H]1C(=O)N[C@@H](CO)C(N)=O)C(C)C)C(=O)O` [compound 37] (H-H[Aib]QGTFTSDK([γGlu-Palmitoyl])SKYLDERAAQDFVQWLLEGGPSSGAPPPS-NH2; N-terminus assumed) are 3 pM, 6 pM and 9 pM.
As to `CCCCCCCCCCCCCCCC(=O)N[C@@H](CCC(=O)NCCCC[C@H](NC(=O)[C@H](CC(=O)O)NC(=O)[C@H](CO)NC(=O)[C@@H](NC(=O)[C@H](Cc1ccccc1)NC(=O)[C@@H](NC(=O)CNC(=O)[C@H](CCC(=O)O)NC(=O)[C@H](C)NC(=O)[C@@H](Cc1c[nH]cn1)NC(C)=O)[C@@H](C)O)[C@@H](C)O)C(=O)N[C@@H](CO)C(=O)N[C@@H](CCCCN)C(=O)N[C@@H](Cc1ccc(O)cc1)C(=O)N[C@@H](CC(C)C)C(=O)N[C@@H](CC(=O)O)C(=O)N[C@@H](CCC(=O)O)C(=O)N[C@@H](CCCNC(=N)N)C(=O)N[C@@H](C)C(=O)N[C@@H](C)C(=O)N[C@@H](CCC(N)=O)C(=O)N[C@@H](CC(=O)O)C(=O)N[C@@H](Cc1ccccc1)C(=O)N[C@H](C(=O)N[C@@H](CCC(N)=O)C(=O)N[C@@H](Cc1c[nH]c2ccccc12)C(=O)N[C@@H](CC(C)C)C(=O)N[C@@H](CC(C)C)C(=O)N[C@@H](CCC(=O)O)C(=O)NCC(=O)NCC(=O)N1CCC[C@H]1C(=O)N[C@@H](CO)C(=O)N[C@@H](CO)C(=O)NCC(=O)N[C@@H](C)C(=O)N1CCC[C@H]1C(=O)N1CCC[C@H]1C(=O)N1CCC[C@H]1C(=O)N[C@@H](CO)C(N)=O)C(C)C)C(=O)O` [compound 148], the EC50 was 7 pM in assay [1] (setting [5]), 2 pM in assay [2] (setting [5]) and 178 pM in assay [3] (setting [5]).
As to `CCCCCCCCCCCCCCCC(=O)N[C@@H](CCC(=O)NCCCC[C@H](NC(=O)[C@H](CC(=O)O)NC(=O)[C@H](CO)NC(=O)[C@@H](NC(=O)[C@H](Cc1ccccc1)NC(=O)[C@@H](NC(=O)CNC(=O)[C@H](CCC(N)=O)NC(=O)[C@H](C)NC(=O)CCc1ccc(O)cc1)[C@@H](C)O)[C@@H](C)O)C(=O)N[C@@H](CO)C(=O)N[C@@H](CCCCN)C(=O)N[C@@H](Cc1ccc(O)cc1)C(=O)N[C@@H](CC(C)C)C(=O)N[C@@H](CC(=O)O)C(=O)N[C@@H](CCC(=O)O)C(=O)N[C@@H](CCCNC(=N)N)C(=O)N[C@@H](C)C(=O)N[C@@H](C)C(=O)N[C@@H](CCC(N)=O)C(=O)N[C@@H](CC(=O)O)C(=O)N[C@@H](Cc1ccccc1)C(=O)N[C@H](C(=O)N[C@@H](CCC(N)=O)C(=O)N[C@@H](Cc1c[nH]c2ccccc12)C(=O)N[C@@H](CC(C)C)C(=O)N[C@@H](CC(C)C)C(=O)N[C@@H](CCC(=O)O)C(=O)NCC(=O)NCC(=O)N1CCC[C@H]1C(=O)N[C@@H](CO)C(=O)N[C@@H](CO)C(=O)NCC(=O)N[C@@H](C)C(=O)N1CCC[C@H]1C(=O)N1CCC[C@H]1C(=O)N1CCC[C@H]1C(=O)N[C@@H](CO)C(N)=O)C(C)C)C(=O)O` [compound 11] (Desaminotyrosyl-AQGTFTSDK([γGlu-Palmitoyl])SKYLDERAAQDFVQWLLEGGPSSGAPPPS-NH2), the EC50 is 2 pM in assay [1] (setting [4]), 2 pM in assay [2] (setting [4]) and 16 pM in assay [3] (setting [4]).
Turning to `CCCCCCCCCCCCCCCC(=O)NCCCC[C@H](NC(=O)[C@H](CO)NC(=O)[C@@H]1CCCN1C(=O)[C@@H]1CCCN1C(=O)[C@@H]1CCCN1C(=O)[C@H](C)NC(=O)CNC(=O)[C@H](CO)NC(=O)[C@H](CO)NC(=O)[C@@H]1CCCN1C(=O)CNC(=O)CNC(=O)[C@H](CCC(=O)O)NC(=O)[C@H](CC(C)C)NC(=O)[C@H](CC(C)C)NC(=O)[C@H](Cc1c[nH]c2ccccc12)NC(=O)[C@H](CCC(N)=O)NC(=O)[C@@H](NC(=O)[C@H](Cc1ccccc1)NC(=O)[C@H](CC(=O)O)NC(=O)[C@H](CCC(N)=O)NC(=O)[C@H](C)NC(=O)[C@H](C)NC(=O)[C@H](CCCNC(=N)N)NC(=O)[C@H](CCC(=O)O)NC(=O)[C@H](CC(=O)O)NC(=O)[C@H](CC(C)C)NC(=O)[C@H](Cc1ccc(O)cc1)NC(=O)[C@H](CCCCN)NC(=O)[C@H](CO)NC(=O)[C@H](Cc1ccc(O)cc1)NC(=O)[C@H](CC(=O)O)NC(=O)[C@H](CO)NC(=O)[C@@H](NC(=O)[C@H](Cc1ccccc1)NC(=O)[C@@H](NC(=O)CNC(=O)[C@H](CCC(N)=O)NC(=O)[C@H](C)NC(=O)CCc1ccc(O)cc1)[C@@H](C)O)[C@@H](C)O)C(C)C)C(=O)NCC(N)=O` [compound 157] (Desaminotyrosyl-AQGTFTSDYSKYLDERAAQDFVQWLLEGGPSSGAPPPSK(Palmitoyl)G-NH2), the EC50 in assay [1] (setting [5]) worked out at 59 pM; in assay [2] (setting [5]), 13 pM; in assay [3] (setting [5]), 47 pM.
Take `CCCCCCCCCCCCCCCC(=O)N[C@@H](CCC(=O)NCCCC[C@H](NC(=O)[C@H](CC(=O)O)NC(=O)[C@H](CO)NC(=O)[C@@H](NC(=O)[C@H](Cc1ccccc1)NC(=O)[C@@H](NC(=O)CNC(=O)[C@H](CCC(N)=O)NC(=O)[C@H](C)NC(=O)C(CN)Cc1c[nH]cn1)[C@@H](C)O)[C@@H](C)O)C(=O)N[C@@H](CO)C(=O)N[C@@H](CCCCN)C(=O)N[C@@H](Cc1ccc(O)cc1)C(=O)N[C@@H](CC(C)C)C(=O)N[C@@H](CC(=O)O)C(=O)N[C@@H](CCC(=O)O)C(=O)N[C@@H](CCCNC(=N)N)C(=O)N[C@@H](C)C(=O)N[C@@H](C)C(=O)N[C@@H](CCC(N)=O)C(=O)N[C@@H](CC(=O)O)C(=O)N[C@@H](Cc1ccccc1)C(=O)N[C@H](C(=O)N[C@@H](CCC(N)=O)C(=O)N[C@@H](Cc1c[nH]c2ccccc12)C(=O)N[C@@H](CC(C)C)C(=O)N[C@@H](CC(C)C)C(=O)N[C@@H](CCC(=O)O)C(=O)NCC(=O)NCC(=O)N1CCC[C@H]1C(=O)N[C@@H](CO)C(=O)N[C@@H](CO)C(=O)NCC(=O)N[C@@H](C)C(=O)N1CCC[C@H]1C(=O)N1CCC[C@H]1C(=O)N1CCC[C@H]1C(=O)N[C@@H](CO)C(N)=O)C(C)C)C(=O)O` (stereo partly drawn) [compound 25]: the EC50 in assay [1] (setting [4]) was found to be 64 pM; in assay [2] (setting [4]), 3 pM; in assay [3] (setting [4]), 24 pM.
On to “Ac-[dY]AQGTFTSDYSKYLDERAAQDFVQWLLEGGPSSGAPPPSK([γGlu-γGlu-Palmitoyl])G-NH2 [compound 149]”, for which the EC50 was 8 pM in assay [1] (setting [5]), 2 pM in assay [2] (setting [5]) and 12 pM in assay [3] (setting [5]).
